Measurements from ChEMBL document CHEMBL3509421, “FDA drug approval package for diclofenac acid (NDA 22-202 CP, Ref ID: 3374276)”.

How the values were obtained:
[1] = Mean Cmax of diclofenac following single oral dosing of 50 mg Cataflam in healthy human; format: ADME, organism-based; set-up: dietary status Fasting, dose 50 mg, dosed compound id 2.46815e+06, dosed compound name Diclofenac potassium, gender Mixed, regimen Single, route oral, study doses 50 mg; conditions: both, plasma
[2] = Mean minimum Tmax value of diclofenac potassium following oral dosing of PRO-513 50 mg sachet in healthy human; format: ADME, organism-based, Plasma; set-up: dietary status Fed, dose 50 mg, dosed compound id 2.46815e+06, dosed compound name Diclofenac potassium, gender Mixed, regimen Single, route oral, study doses 50 mg; conditions: in vivo
[3] = Mean median Tmax value of diclofenac potassium following oral dosing of Cataflam 50 mf tablet in healthy human; format: ADME, organism-based; set-up: dietary status Fasting, dose 50 mg, dosed compound id 2.46815e+06, dosed compound name Diclofenac potassium, gender Mixed, regimen Single, route oral, study doses 50 mg; conditions: both, plasma, 50 mg, read-out: Median Tmax
[4] = Mean AUC (0-t) of diclofenac following single oral dosing of 50 mg diclofenac potassium softgel capsule in healthy human; format: ADME, organism-based; set-up: dietary status Fasting, dose 50 mg, dosed compound id 2.46815e+06, dosed compound name Diclofenac potassium, gender Mixed, regimen Single, route oral, study doses 25/50 mg; conditions: both, plasma
[5] = (§1) Mean terminal elimination half-life of diclofenac potassium following oral dosing of Cataflam 50 mf tablet in healthy human; conditions: both, plasma, 50 mg
[6] = Maximum tmax of diclofenac following single oral dosing of 35 mg Zorvolex capsule in healthy human; format: ADME, organism-based, Plasma; set-up: dietary status Fasting, dose 35 mg, dosed compound id 2.46815e+06, dosed compound name Diclofenac, gender Mixed, regimen Single, route oral; conditions: in vivo
[7] = Mean AUC(0-t) of diclofenac potassium following oral dosing of PRO-513 50 mg sachet in healthy human; format: ADME, organism-based; set-up: dietary status Fed, dose 50 mg, dosed compound id 2.46815e+06, dosed compound name Diclofenac potassium, gender Mixed, regimen Single, route oral, study doses 50 mg; conditions: both, plasma
[8] = Geometric mean for AUC (0-infinity) of diclofenac following single oral dosing of 18 mg Zorvolex capsule in healthy human; format: ADME, organism-based; set-up: time infinity, dietary status Fasting, dose 18 mg, dosed compound id 2.46815e+06, dosed compound name Diclofenac, gender Mixed, regimen Single, route oral; conditions: both, plasma, read-out: AUC (0-infinity)
[9] = Mean AUC(0-infinity) of diclofenac following single oral dosing of 25 mg diclofenac potassium soft gelatin capsule in healthy human; format: ADME, organism-based; set-up: time infinity, dietary status Fasting, dose 25 mg, dosed compound id 2.46815e+06, dosed compound name Diclofenac potassium, gender Mixed, regimen Single, route oral, study doses 25/50 mg; conditions: both, plasma, read-out: AUC (0-infinity)
[10] = Mean AUC(0-infinity) of diclofenac potassium following oral dosing of PRO-513 50 mg sachet in healthy human; format: ADME, organism-based; set-up: time infinity, dietary status Fasting, dose 50 mg, dosed compound id 2.46815e+06, dosed compound name Diclofenac potassium, gender Mixed, regimen Single, route oral, study doses 50 mg; conditions: both, plasma, read-out: AUC(0-infinity)
[11] = Median tmax of diclofenac following single oral dosing of 50 mg Cataflam tablet in healthy human; format: ADME, organism-based; set-up: dietary status Fasting, dose 50 mg, dosed compound id 2.46815e+06, dosed compound name Diclofenac potassium, gender Mixed, regimen Single, route oral; conditions: both, plasma, read-out: Median Tmax
[12] = Mean median Tmax value of diclofenac potassium following oral dosing of PRO-513 50 mg sachet in healthy human; format: ADME, organism-based; set-up: dietary status Fed, dose 50 mg, dosed compound id 2.46815e+06, dosed compound name Diclofenac potassium, gender Mixed, regimen Single, route oral, study doses 50 mg; conditions: both, plasma, read-out: Median Tmax
[13] = as §1; conditions: both, plasma, 50 mg; remark: listed apart in the source
[14] = Mean Tmax of diclofenac following single oral dosing of 50 mg diclofenac potassium soft gelatin capsule in healthy human; format: ADME, organism-based; set-up: dietary status Fasting, dose 50 mg, dosed compound id 2.46815e+06, dosed compound name Diclofenac potassium, gender Mixed, regimen Single, route oral, study doses 25/50 mg; conditions: both, plasma
[15] = Geometric mean for Cmax of diclofenac following single oral dosing of 35 mg Zorvolex capsule in healthy human; format: ADME, organism-based; set-up: dietary status Fasting, dose 35 mg, dosed compound id 2.46815e+06, dosed compound name Diclofenac, gender Mixed, regimen Single, route oral; conditions: both, plasma
[16] = Geometric mean for AUC (0-t) of diclofenac following single oral dosing of 50 mg Cataflam tablet in healthy human; format: ADME, organism-based; set-up: dietary status Fasting, dose 50 mg, dosed compound id 2.46815e+06, dosed compound name Diclofenac potassium, gender Mixed, regimen Single, route oral; conditions: both, plasma
[17] = Mean AUC(0-infinity) of diclofenac following single oral dosing of 50 mg diclofenac potassium soft gelatin capsule in healthy human; format: ADME, organism-based; set-up: time infinity, dietary status Fasting, dose 50 mg, dosed compound id 2.46815e+06, dosed compound name Diclofenac potassium, gender Mixed, regimen Single, route oral, study doses 25/50 mg; conditions: both, plasma, read-out: AUC (0-infinity)
[18] = Mean minimum Tmax value of diclofenac potassium following oral dosing of Cataflam 50 mf tablet in healthy human; format: ADME, organism-based; set-up: dietary status Fed, dose 50 mg, dosed compound id 2.46815e+06, dosed compound name Diclofenac potassium, gender Mixed, regimen Single, route oral, study doses 50 mg; conditions: both, plasma, 50 mg, read-out: Minimum Tmax
[19] = Mean apparent terminal elimination rate constant value of diclofenac following single oral dosing of 35 mg Zorvolex capsule in healthy human; format: ADME, organism-based, Plasma; set-up: dietary status Fed, dose 35 mg, dosed compound id 2.46815e+06, dosed compound name Diclofenac, gender Mixed, regimen Single, route oral; conditions: in vivo
[20] = Mean AUC(0-t) of diclofenac following single oral dosing of 50 mg Cataflam in healthy human; format: ADME, organism-based; set-up: dietary status Fasting, dose 50 mg, dosed compound id 2.46815e+06, dosed compound name Diclofenac potassium, gender Mixed, regimen Single, route oral, study doses 50 mg; conditions: both, plasma
[21] = Mean maximum Tmax value of diclofenac potassium following oral dosing of PRO-513 50 mg sachet in healthy human; format: ADME, organism-based; set-up: dietary status Fed, dose 50 mg, dosed compound id 2.46815e+06, dosed compound name Diclofenac potassium, gender Mixed, regimen Single, route oral, study doses 50 mg; conditions: both, plasma, read-out: Maximum Tmax
[22] = Median tmax of diclofenac following single oral dosing of 35 mg Zorvolex capsule in healthy human; format: ADME, organism-based; set-up: dietary status Fasting, dose 35 mg, dosed compound id 2.46815e+06, dosed compound name Diclofenac, gender Mixed, regimen Single, route oral; conditions: both, plasma, read-out: Median Tmax
[23] = clinical; conditions: both, human, plasma, po, 50 mg
[24] = clinical; conditions: both, human, plasma, po, 50 mg; remark: listed apart in the source
[25] = clinical; conditions: both, human, plasma, po, 50 mg; remark: listed apart in the source
[26] = clinical; conditions: both, human, plasma, po, 50 mg; remark: listed apart in the source
[27] = Maximum tmax of diclofenac following single oral dosing of 50 mg Cataflam tablet in healthy human; format: ADME, organism-based, Plasma; set-up: dietary status Fasting, dose 50 mg, dosed compound id 2.46815e+06, dosed compound name Diclofenac potassium, gender Mixed, regimen Single, route oral; conditions: in vivo
[28] = Minimum tmax of diclofenac following single oral dosing of 35 mg Zorvolex capsule in healthy human; format: ADME, organism-based, Plasma; set-up: dietary status Fasting, dose 35 mg, dosed compound id 2.46815e+06, dosed compound name Diclofenac, gender Mixed, regimen Single, route oral; conditions: in vivo
[29] = Mean Cmax value of diclofenac following single oral dosing of 50 mg Cataflam tablet in healthy human; format: ADME, organism-based; set-up: dietary status Fed, dose 50 mg, dosed compound id 2.46815e+06, dosed compound name Diclofenac potassium, gender Mixed, regimen Single, route oral; conditions: both, plasma
[30] = Mean AUC (0-infinity) of diclofenac following single oral dosing of 50 mg diclofenac potassium softgel capsule in healthy human; format: ADME, organism-based; set-up: time infinity, dietary status Fasting, dose 50 mg, dosed compound id 2.46815e+06, dosed compound name Diclofenac potassium, gender Mixed, regimen Single, route oral, study doses 25/50 mg; conditions: both, plasma, read-out: AUC (0-infinity)
[31] = Geometric mean for Cmax of diclofenac following single oral dosing of 50 mg Cataflam tablet in healthy human; format: ADME, organism-based; set-up: dietary status Fed, dose 50 mg, dosed compound id 2.46815e+06, dosed compound name Diclofenac potassium, gender Mixed, regimen Single, route oral; conditions: both, plasma

For `O=C(O)Cc1ccccc1Nc1c(Cl)cccc1Cl` [DICLOFENAC], the Cmax [1] was 1.17 µg/mL, the “Minimum Tmax” value [2] was 4.8 min and the Tmax [3] was 0.5 h. For the same molecule, the AUC(0-t) [4] was 1.52 µg·h/mL, the half-life [5] was 1.56 h and the “Maximum Tmax” value [6] was 4 h. It also gave an AUC(0-t) [7] of 1.05 µg·h/mL, an AUC(0-inf) [8] of 0.487 µg·h/mL and an AUC(0-inf) [9] of 0.603 µg·h/mL. It also gave an AUC(0-inf) [10] of 1.25 µg·h/mL, a Tmax [11] of 1 h and a Tmax [12] of 0.17 h. The half-life [13] was 1.29 h, the Tmax [14] was 0.48 h and the Cmax [15] was 0.804 µg/mL. For the same molecule, the AUC(0-t) [16] was 1.29 µg·h/mL, the AUC(0-inf) [17] was 1.23 µg·h/mL and the Tmax [18] was 0.33 h. For the same molecule, the lambda-z [19] was 0.371 h⁻¹, the AUC(0-t) [20] was 1.13 µg·h/mL and the Tmax [21] was 4 h. For the same molecule, the Tmax [22] was 1 h, the half-life [23] was 1.45 h and the half-life [24] was 2.27 h. For the same molecule, the half-life [25] was 1.84 h, the half-life [26] was 1.35 h and the “Maximum Tmax” value [27] was 4.48 h. For the same molecule, the “Minimum Tmax” value [28] was 0.47 h, the Cmax [29] was 0.713 µg/mL and the AUC(0-inf) [30] was 1.55 µg·h/mL. It also gave a Cmax [31] of 0.621 µg/mL.
